Data on one compound can be found in BindingDB's records for PubMed 7509389 (Fujisawa Pharmaceutical, 1994).

For the assay, the target named is T1, Gastrin/cholecystokinin type B receptor (Rattus norvegicus, UniProt P30553).
T1 sequence (P30553 whole entry): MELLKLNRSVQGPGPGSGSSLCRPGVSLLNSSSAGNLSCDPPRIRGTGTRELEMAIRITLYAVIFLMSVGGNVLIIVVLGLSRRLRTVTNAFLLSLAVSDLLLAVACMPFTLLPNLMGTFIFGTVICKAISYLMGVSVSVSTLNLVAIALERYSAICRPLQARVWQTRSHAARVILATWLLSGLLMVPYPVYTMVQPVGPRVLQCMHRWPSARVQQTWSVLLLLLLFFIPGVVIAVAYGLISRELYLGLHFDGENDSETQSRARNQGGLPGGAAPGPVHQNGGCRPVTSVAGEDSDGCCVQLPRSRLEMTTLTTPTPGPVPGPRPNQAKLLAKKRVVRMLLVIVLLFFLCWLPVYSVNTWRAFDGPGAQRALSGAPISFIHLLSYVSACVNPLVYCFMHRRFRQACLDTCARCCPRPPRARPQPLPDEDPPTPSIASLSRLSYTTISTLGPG

One may read the Ki as a dissociation constant, usually derived from enzyme kinetics or from competition with a known ligand. For `CCCCCN(CCCOC)C(=O)C(CCC(=O)O)NC(=O)c1ccc(Cl)c(Cl)c1` (stereo unspecified) [4-(3,4-dichlorobenzamido)-5-((3-methoxypropyl)(pentyl)amino)-5-oxopentanoic acid], the Ki stood at 0.33 µM.
